Converted amounts (≈) assume the structure as drawn.
How the values were obtained:
[1] = Solubility test, equilibrium method, UV-visible spectrophotometry; type: physicochemical; conditions: thermodynamic from solid
Method: The solubility test is carried out by equilibrium method. […] An appropriate amount of the compound is weighed and dissolved in 1 mL of methanol solution to prepare a control solution with a certain concentration (C0). The concentration of test solution is calculated according to the following formula: Cx=(Ax/A0)C0, wherein Cx is concentration of test solution, Ax is absorbance of test solution, C0 is concentration of control solution, and A0 is absorbance of control solution.

[2] = system: colon cancer cells SW-480; experiment: In vivo antitumor activity, tumor volume (Example 19); parameters: species or system mice; conditions: for Mouse Tumor Volume: 13.73 mg/kg i.v. once every three days, average, n = 6
[3] = In vivo antitumor activity study, mouse weight (Example 19); parameters: species or system mice; conditions: 13.73 mg/kg i.v. once every three days
tumor = experiment: Multi-dose in vivo antitumor activity, tumor volume (Example 20); parameters: species or system mice; conditions: for Mouse Tumor Volume: caudal vein once every 2 days
Method: The drugs are administered through the caudal veins of mice once every 2 days for a total of 7 times.
Tumor volume is measured every three days from day 0. The maximum diameter (a) of the tumor is measured first, and then the longest radial line (b) perpendicular to the maximum diameter is measured, using mm as unit. Tumor volume is calculated according to the following formula: […]

SW-480 = experiment: Cytotoxicity test (MTT, 72 h); conditions: Homo sapiens, SW480, 72 h, read-out: 50% Inhibiting Concentration value (IC50)
Method: (§1) Cells at logarithmic growth period are inoculated in a 96-well plate overnight, then drugs with a certain gradient concentrations are added, and incubation is carried out in a cell culture chamber (5% CO2, 37° C.) for 72 h.

HT-29 = experiment: Cytotoxicity test (MTT, 72 h); conditions: Homo sapiens, HT-29, 72 h, read-out: 50% Inhibiting Concentration value (IC50)
Method: as §1

HCT-116 = experiment: Cytotoxicity test (MTT, 72 h); conditions: Homo sapiens, HCT-116, 72 h, read-out: 50% Inhibiting Concentration value (IC50)
Method: (§2) In order to investigate the antitumor activities of the compounds, a variety of tumor cell lines for test are selected. Cells at logarithmic growth period are inoculated in a 96-well plate overnight, then drugs with a certain gradient concentrations are added, and incubation is carried out in a cell culture chamber (5% CO2, 37° C.) for 72 h.

A549 = experiment: Cytotoxicity test (MTT, 72 h); conditions: Homo sapiens, A549, 72 h, read-out: 50% Inhibiting Concentration value (IC50)
Method: as §2

H1975 = experiment: Cytotoxicity test (MTT, 72 h); conditions: Homo sapiens, NCI-H1975, 72 h, read-out: 50% Inhibiting Concentration value (IC50)
Method: as §2

ECA-109 = experiment: Cytotoxicity test (MTT, 72 h); conditions: Homo sapiens, ECa-109, 72 h, read-out: 50% Inhibiting Concentration value (IC50)
Method: as §2

K562 = experiment: Cytotoxicity test (MTT, 72 h); conditions: Homo sapiens, K562, 72 h, read-out: 50% Inhibiting Concentration value (IC50)
Method: as §2

PC3 = experiment: Cytotoxicity test (MTT, 72 h); conditions: Homo sapiens, PC-3, 72 h, read-out: 50% Inhibiting Concentration value (IC50)
Method: as §2

143B = experiment: Cytotoxicity test (MTT, 72 h); conditions: Homo sapiens, read-out: 50% Inhibiting Concentration value (IC50)
Method: as §2

MDA-MB-231 = experiment: Cytotoxicity test (MTT, 72 h); conditions: Homo sapiens, MDA-MB-231, 72 h, read-out: 50% Inhibiting Concentration value (IC50)
Method: as §2

Hela = experiment: Cytotoxicity test (MTT, 72 h); conditions: Homo sapiens, read-out: 50% Inhibiting Concentration value (IC50)
Method: as §2

TPC-1 = experiment: Cytotoxicity test (MTT, 72 h); conditions: Homo sapiens, TPC1, 72 h, read-out: 50% Inhibiting Concentration value (IC50)
Method: as §1

SKOV-3 = experiment: Cytotoxicity test (MTT, 72 h); conditions: Homo sapiens, SK-OV-3, 72 h, read-out: 50% Inhibiting Concentration value (IC50)
Method: as §1

PANC-1 = experiment: Cytotoxicity test (MTT, 72 h); conditions: Homo sapiens, PANC-1, 72 h, read-out: 50% Inhibiting Concentration value (IC50)
Method: as §1

## CCc1c2c(nc3ccc(OC(=O)OCCOCCOCCOCc4cn(CCO[C@H]5O[C@@H](CO)[C@H](O)[C@@H](O)[C@@H]5O)nn4)cc13)-c1cc3c(c(=O)n1C2)COC(=O)[C@]3(O)CC [Compound 58]
[1]; aqueous with cosolvent or surfactant or cyclodextrin
  solubility: 5330 µg/mL (≈ 6.23 mM)
[1]; pH 7.4, aqueous buffer
  solubility: 1580 µg/mL (≈ 1.84 mM)
[1]; saline or isotonic
  solubility: 3590 µg/mL (≈ 4.2 mM)
[1]; water
  solubility: 2550 µg/mL (≈ 2.98 mM)
[2]; day 0
  Mouse Tumor Volume: 235.22 mm^3
[2]; day 3
  Mouse Tumor Volume: 202.08 mm^3
[2]; day 6
  Mouse Tumor Volume: 98.87 mm^3
[2]; day 9
  Mouse Tumor Volume: 118.41 mm^3
[2]; day 12
  Mouse Tumor Volume: 80.63 mm^3
[2]; day 15
  Mouse Tumor Volume: 38.37 mm^3
[2]; day 18
  Mouse Tumor Volume: 40.03 mm^3
[2]; day 21
  Mouse Tumor Volume: 7.16 mm^3
[2]; dosage two-thirds of the molar fraction of CPT-11
  inhibition rates on colon cancer cell SW-480 compared with CPT-11 (in words): significantly higher inhibition rates
[3]; day 0
  Mouse Weight: 23.57 g
[3]; day 3
  Mouse Weight: 23.71 g
[3]; day 6
  Mouse Weight: 24.00 g
[3]; day 9
  Mouse Weight: 24.76 g
[3]; day 12
  Mouse Weight: 24.93 g
[3]; day 15
  Mouse Weight: 24.34 g
[3]; day 18
  Mouse Weight: 24.04 g
[3]; day 21
  Mouse Weight: 24.12 g
tumor; day 0, high-dose group (H) 13.73 mg/kg
  Mouse Tumor Volume: 120.63 mm^3
tumor; day 0, low-dose group (L) 3.433 mg/kg
  Mouse Tumor Volume: 110.67 mm^3
tumor; day 0, medium-dose group (M) 6.865 mg/kg
  Mouse Tumor Volume: 113.01 mm^3
tumor; day 3, high-dose group (H) 13.73 mg/kg
  Mouse Tumor Volume: 151.62 mm^3
tumor; day 3, low-dose group (L) 3.433 mg/kg
  Mouse Tumor Volume: 164.30 mm^3
tumor; day 3, medium-dose group (M) 6.865 mg/kg
  Mouse Tumor Volume: 106.18 mm^3
tumor; day 6, high-dose group (H) 13.73 mg/kg
  Mouse Tumor Volume: 206.78 mm^3
tumor; day 6, low-dose group (L) 3.433 mg/kg
  Mouse Tumor Volume: 235.34 mm^3
tumor; day 6, medium-dose group (M) 6.865 mg/kg
  Mouse Tumor Volume: 122.56 mm^3
tumor; day 9, high-dose group (H) 13.73 mg/kg
  Mouse Tumor Volume: 254.08 mm^3
tumor; day 9, low-dose group (L) 3.433 mg/kg
  Mouse Tumor Volume: 252.37 mm^3
tumor; day 9, medium-dose group (M) 6.865 mg/kg
  Mouse Tumor Volume: 151.19 mm^3
tumor; day 12, high-dose group (H) 13.73 mg/kg
  Mouse Tumor Volume: 317.44 mm^3
tumor; day 12, low-dose group (L) 3.433 mg/kg
  Mouse Tumor Volume: 316.07 mm^3
tumor; day 12, medium-dose group (M) 6.865 mg/kg
  Mouse Tumor Volume: 141.38 mm^3
tumor; day 15, high-dose group (H) 13.73 mg/kg
  Mouse Tumor Volume: 430.78 mm^3
tumor; day 15, low-dose group (L) 3.433 mg/kg
  Mouse Tumor Volume: 375.47 mm^3
tumor; day 15, medium-dose group (M) 6.865 mg/kg
  Mouse Tumor Volume: 141.13 mm^3
tumor; day 18, high-dose group (H) 13.73 mg/kg
  Mouse Tumor Volume: 519.79 mm^3
tumor; day 18, low-dose group (L) 3.433 mg/kg
  Mouse Tumor Volume: 401.94 mm^3
tumor; day 18, medium-dose group (M) 6.865 mg/kg
  Mouse Tumor Volume: 134.18 mm^3
tumor; day 21, high-dose group (H) 13.73 mg/kg
  Mouse Tumor Volume: 555.67 mm^3
tumor; day 21, low-dose group (L) 3.433 mg/kg
  Mouse Tumor Volume: 433.61 mm^3
tumor; day 21, medium-dose group (M) 6.865 mg/kg
  Mouse Tumor Volume: 142.06 mm^3
tumor; high-dose group, after last administration
  increase of tumor volume compared with other groups (in words): slowest increase
tumor; high-dose groups, same dosage (10 mg/kg), p<0.001
  tumor inhibition effects of the high-dose groups compared with CPT-11 (in words): better than that of positive control group CPT-11
tumor; low, medium and high dose
  dose dependence of tumor inhibition (in words): dose-dependent
SW-480
  IC50: 0.254 µM
HT-29
  IC50: 5.25 µM
HCT-116
  IC50: 2 µM
A549
  IC50: 3.04 µM
H1975
  IC50: 9.35 µM
ECA-109
  IC50: 4.38 µM
K562
  IC50: 1.66 µM
PC3
  IC50: 2.53 µM
143B
  IC50: 7.79 µM
MDA-MB-231
  IC50: 0.521 µM
Hela
  IC50: 3.65 µM
TPC-1
  IC50: 11.2 µM
SKOV-3
  IC50: 0.75 µM
PANC-1
  IC50: 3.65 µM
